In patent US8703970B2, “Compounds having photochemically removable protecting groups based on an electrocyclic reaction between a chromophore attached via an anilide group to a benzothiophene ring” (Marquette University, priority 2012, dated 2014):
Like-named read-outs stand apart in the source and are kept apart here.

Test: Solubility observations on photoproducts
Assay type: physicochemical
Description: Photoproduct 26 was identified by ^1H NMR spectroscopy and elemental analysis. […] Regioisomer 28 would have shown only four vicinal couplings in the COSY spectrum. […] The compound was obtainable only as a powder, despite repeated attempts to obtain crystals for structure determination using X-ray diffraction.
Similarly, preparative photolysis of […] acid 9 (LG^−=Cl^−) in N2 saturated 75% H2O in CH3CN containing 100 mM phosphate buffer (pH 7) gave the single regioisomeric photoproduct 27 in 98% yield by NMR integration, as above for 8 (LG^−=Cl^−). The regiospecificity was again established by 600 MHz ^1H NMR COSY. […] Photolysis of acid 9 (LG^−=PhS^−, HS^−, PhCH2S^−) under the same conditions as 8 (LG^−=Cl^−) also gave photoproduct 27 in 98-100% yields upon expulsion of these thiolate leaving groups. For acid 9 (LG^−=PhCH2S^−) the released benzyl thiol was quantified in photolyses of 4.5×10^−3 M solutions of 35% D2O in CD3CN containing phosphate buffer (as above) contained in NMR tubes. Yields were 96% thiol and 99% of 27 at 100% conversion of reactant by ^1H NMR spectroscopy. Very similar results were found when DMSO-d6 was the photolysis solvent.
A 0.010 M solution of 8 (LG^−=Cl^−) in N2 saturated 17% H2O in CH3CN containing 100 mM phosphate buffer at pH 7 was irradiated with a 450 W Hanovia medium pressure mercury lamp with a Pyrex filter for 90 min. […]

Structure (SMILES) | solubility (in DMSO-d6, 13C-NMR could not be obtained) | solubility
Cn1c(=O)c2sc3ccccc3c2c2cc3sc4ccccc4c(=O)c3cc21 [compound 31] | low solubility | 
COC(=O)c1ccc2c(c1)sc1c(=O)n(C)c3cc4c(=O)c5cc(Br)ccc5sc4cc3c12 [compound 32, 6-methylcarboxylate-[1]benzothiopheno[2,3-c]benzo[a]anthracene-10-bromo-4-methyl-4H-7-thia-4-aza-3,12-dione] |  | low solubility
